Experiments:
SPAST Spastin = biological target: T1, SPAST Spastin (Homo sapiens, UniProt Q9UBP0); assay: competitive isoTOP-ABPP; assay type: binding; conditions: for R value (DMSO/fragment) for probe 1 labeling: Q9UBP0_K180
T1 construct: endogenous in cells; host or cells: MDA-MB-231 lysate
T1 sequence (Q9UBP0 1-616): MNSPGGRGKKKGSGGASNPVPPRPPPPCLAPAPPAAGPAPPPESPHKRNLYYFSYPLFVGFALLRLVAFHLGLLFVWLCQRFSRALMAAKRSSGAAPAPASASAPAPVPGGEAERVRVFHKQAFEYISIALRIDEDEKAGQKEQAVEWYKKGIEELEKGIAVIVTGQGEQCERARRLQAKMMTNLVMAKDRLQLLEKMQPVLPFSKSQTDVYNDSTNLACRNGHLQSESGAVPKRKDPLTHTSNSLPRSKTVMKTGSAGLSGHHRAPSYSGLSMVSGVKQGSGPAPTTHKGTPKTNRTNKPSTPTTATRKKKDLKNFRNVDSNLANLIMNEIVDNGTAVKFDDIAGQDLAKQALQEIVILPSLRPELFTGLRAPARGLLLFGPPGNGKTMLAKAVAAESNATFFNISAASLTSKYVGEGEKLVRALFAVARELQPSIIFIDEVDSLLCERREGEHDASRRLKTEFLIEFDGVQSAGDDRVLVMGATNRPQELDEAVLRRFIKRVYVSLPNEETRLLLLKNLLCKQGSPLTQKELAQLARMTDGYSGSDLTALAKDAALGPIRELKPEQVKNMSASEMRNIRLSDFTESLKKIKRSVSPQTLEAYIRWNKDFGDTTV
Procedure, shortened: (§1)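 Cell lysate (0.5 ml) was pre-treated with fragment, 50 μM for activated esters or 100 μM for guanidinylating agents, versus DMSO, then labeled 1 h at ambient temperature with 0.1 mM STP-alkyne. Light/heavy TEV tags attached by CuAAC; R = DMSO/compound MS1 peak-area ratio, median per lysine.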

[1] = biological target: T2, SOD2 Superoxide dismutase (Homo sapiens, UniProt P04179); assay: competitive isoTOP-ABPP; assay type: binding; conditions: for R value (DMSO/fragment) for probe 1 labeling: P04179_K68
T2 construct: isoTOP-ABPP experiments performed in cell lysates (in vitro); endogenous in cells; host or cells: MDA-MB-231 soluble lysate
T2 sequence (P04179 25-222): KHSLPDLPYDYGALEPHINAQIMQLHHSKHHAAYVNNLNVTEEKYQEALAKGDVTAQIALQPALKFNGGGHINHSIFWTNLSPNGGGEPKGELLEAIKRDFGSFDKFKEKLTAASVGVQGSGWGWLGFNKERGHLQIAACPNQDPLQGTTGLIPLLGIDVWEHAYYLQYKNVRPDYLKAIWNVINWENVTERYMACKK
Procedure, shortened: as §1

[2] = biological target: T3, TARDBP TAR DNA-binding protein 43 (Homo sapiens, UniProt Q13148); assay: competitive isoTOP-ABPP; conditions: for isoTOP-ABPP ratio, lysine Q13148_K114: 100 uM_231_sol_in vitro
T3 construct: isoTOP-ABPP experiments performed in cell lysates (in vitro); endogenous in cells; host or cells: soluble proteome of human cancer cell lines (MDA-MB-231, Ramos, Jurkat)
Procedure, shortened: as §1

[3] = tested on: lysines in the human breast cancer cell MDA-MB-231 proteome; assay: competitive isoTOP-ABPP, proteome-wide fragment reactivity; assay type: binding; conditions: for proteome-wide reactivity: fragments 50-100 μM; for lysines reacted that showed negligible cross-reactivity with activated esters: human cell proteomes
Procedure: In vitro covalent fragment treatment for isoTOP-ABPP. All compounds were made up as solutions in DMSO (100×) and were used at a final concentration of 50 μM for activated esters and 100 μM for guanidinylating agents. For each profiling sample, 0.5 ml of lysate was treated with 5 μl of the 100× compound stock solution or 5 μl of DMSO. Samples were treated with activated esters for
STP-alkyne labeling and click chemistry. For concentration-dependent reactivity measurements by isoTOP-ABPP, 0.5 ml proteome aliquots were treated at ambient temperature with 1 mM STP-alkyne 1 (5 μl of 100 mM stock in DMSO) and 0.1 mM STP alkyne 1 (5 μl of 10 mM stock in DMSO), respectively. For competitive isoTOP-ABPP, after in vitro fragment treatment (detailed above), the samples were labeled for 1 h at ambient temperature with 0.1 mM STP-alkyne 1 (5 μl of 10 mM stock in DMSO). Samples were conjugated by copper-mediated azide-alkyne cycloaddition (CuAAC) to either the light (1 mM STP-alkyne or fragment treated) or heavy (0.1 mM STP-alkyne or DMSO treated) TEV tags (10 μl of 5 mM stocks in DMSO, final concentration=100 μM) using tris(2-carboxyethyl)phosphine hydrochloride
R value calculation and processing. The ratios of light and heavy MS1 peaks for each unique peptide were quantified with a CIMAGE software using default parameters (3 MS1 acquisitions per peak and signal to noise threshold set to 2.5). For reactivity measurements by isoTOP-ABPP, the R value was calculated from the ratio of MS1 peak areas, comparing the 1 mM STP alkyne sample (light TEV tag) with the 0.1 mM STP alkyne sample (heavy TEV tag). For competitive isoTOP-ABPP, the R value was calculated from the ratio of MS1 peak areas, comparing the DMSO treated sample (heavy TEV tag) with the compound treated sample (light TEV tag). […] Ratios for unique peptide entries are calculated for each experiment; overlapping peptides with the same modified lysine (for example, different charge states, MudPIT chromatographic steps or tryptic termini) are grouped together and the median ratio is reported as the final ratio (R). The peptide ratios reported by CIMAGE were further filtered to ensure the removal or correction of low-quality ratios in each individual data set. The quality filters applied were the following: removal of half tryptic peptides; for ratios with high standard deviations from the median (90% of the median or above) the lowest ratio was taken instead of the median; removal of peptides with R=20 and only a single MS2 event triggered during the elution of the parent ion; manual annotation of all the peptides with ratios of 20, removing any peptides with low quality elution profiles that remained after the previous curation steps (only done for competitive isoTOP-ABPP).
Cross-data processing for fragment screening. For compound treated samples, biological replicates of the same condition were averaged, if the standard deviation was below 60% of the mean; otherwise, for lysines with at least one R value <4 for a particular compound, the lowest value of the ratio set was taken. For lysines, where all R values for a particular compound were ≥4, the average was reported. For peptides containing several possible modified lysines, the lysine with the highest number of quantification events was used for analysis and the remaining, redundant peptides were reported as alternative modification sites. Peptides included in the aggregate dataset (those used for further bioinformatics and statistical analyses) were required to have been quantified in 2 experiments for competitive isoTOP-ABPP. Lysines were categorized as liganded, if they had at least one ratio R≥4 (hit fragments). For liganded lysines with R=20 for all liganding events, lysines were required to have been quantified with R=20 in two separate experiments and were further required to have been quantified with R<20 in one additional experiment. […]

T3 sequence (Q13148 whole entry): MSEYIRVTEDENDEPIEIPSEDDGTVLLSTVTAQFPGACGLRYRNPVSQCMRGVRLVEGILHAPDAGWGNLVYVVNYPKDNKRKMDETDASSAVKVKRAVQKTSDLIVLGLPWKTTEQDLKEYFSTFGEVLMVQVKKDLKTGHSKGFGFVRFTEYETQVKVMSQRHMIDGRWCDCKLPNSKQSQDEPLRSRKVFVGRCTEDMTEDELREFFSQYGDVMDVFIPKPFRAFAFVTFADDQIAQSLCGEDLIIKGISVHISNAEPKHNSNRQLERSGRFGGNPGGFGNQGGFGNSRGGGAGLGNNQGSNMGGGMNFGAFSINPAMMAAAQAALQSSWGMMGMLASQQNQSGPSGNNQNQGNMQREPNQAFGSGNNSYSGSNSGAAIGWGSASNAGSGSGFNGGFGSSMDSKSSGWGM

Row | Compound | R value (DMSO/fragment) for probe 1 labeling (SPAST Spastin; 50 uM, 231 sol, in vitro) | R value (DMSO/fragment) for probe 1 labeling ([1]; 50 uM, 231 sol, in vitro) | isoTOP-ABPP ratio, lysine Q13148_K114 [2] | proteome-wide reactivity [3] | lysines reacted that showed negligible cross-reactivity with activated esters [3] | further results
1 | O=C(CCc1cn(-c2ccccc2)nc1-c1ccccc1)Oc1ccc([N+](=O)[O-])cc1[N+](=O)[O-] [fragment 29, 2,4-Dinitrophenyl 3-(1,3-diphenyl-1H-pyrazol-4-yl)propanoate] | – | – | – | much greater proteome-wide reactivity | – | isoTOP-ABPP reactivity ratio at lysine Q9UBP0_K180 (SPAST Spastin; 50 uM, 231 sol, in vitro): 1.2; isoTOP-ABPP reactivity ratio at lysine Q13148_K114 ([2]; 50 uM, 231 sol, in vitro): 1.1
2 | COC(=O)NC(=NC(=O)OCC1c2ccccc2-c2ccccc21)n1cccn1 [fragment 49, N-Methoxycarbonyl-N′-9-fluorenylmethoxycarbonyl-pyrazole-1-carboxamidine] | – | – | 20.0 | – | 15 | isoTOP-ABPP ratio, lysine P04179_K68 ([1]; 100 uM_231_sol_in vitro): 3.3
3 | CC(C)(C)OC(=O)N=C(NC(=O)OC(C)(C)C)n1cccn1 [fragment 50, reference compound] | – | – | 1.2 | – | 15 | isoTOP-ABPP ratio, lysine Q9UBP0_K180 (SPAST Spastin; 100 uM_231_sol_in vitro): 2.0
4 | O=C(Oc1ccc([N+](=O)[O-])cc1[N+](=O)[O-])C(c1ccccc1)c1ccccc1 [fragment 30, 2,4-Dinitrophenyl 2,2-diphenylacetate] | – | – | – | much greater proteome-wide reactivity | – | isoTOP-ABPP reactivity ratio at lysine P04179_K68 ([1]; 50 uM, 231 sol, in vitro): 1.1

Further lines, with some results ahead:

Row | R value (DMSO/fragment) for probe 1 labeling (SPAST Spastin; 50 uM, 231 sol, in vitro) | R value (DMSO/fragment) for probe 1 labeling ([1]; 50 uM, 231 sol, in vitro) | isoTOP-ABPP ratio, lysine Q13148_K114 [2] | Compound | proteome-wide reactivity [3] | lysines reacted that showed negligible cross-reactivity with activated esters [3] | further results
5 | 1.8 | 1.2 | – | O=C(Oc1c(F)c(F)c(F)c(F)c1F)c1cc(C(F)(F)F)cc(C(F)(F)F)c1 [fragment 21, Pentafluorophenyl 3,5-bis(trifluoromethyl)benzoate] | low proteome-wide reactivity | – | R value (DMSO/fragment) for probe 1 labeling ([2]; Q13148_K114, 50 uM, 231 sol, in vitro): 0.9
6 | 1.2 | 1.0 | – | O=C(Oc1c(F)c(F)c(F)c(F)c1F)C(c1ccccc1)c1ccccc1 [fragment 20, Pentafluorophenyl 2,2-diphenylacetate] | limited reactivity across the proteome | – | –
